Test results: patent publication US20200171132A1, “METHODS OF INHIBITING FUNGAL CERAMIDE SYNTHASE FOR TREATMENT OF CRYPTOCOCCUS NEOFORMANS INFECTION” (The Research Foundation for the State University of New York, priority 2017, published 2020)

Key:
human Cer1 = biological target: T1, human Cer1 (Homo sapiens, UniProt P27544); details: cited from earlier work
T1 sequence (P27544 1-350): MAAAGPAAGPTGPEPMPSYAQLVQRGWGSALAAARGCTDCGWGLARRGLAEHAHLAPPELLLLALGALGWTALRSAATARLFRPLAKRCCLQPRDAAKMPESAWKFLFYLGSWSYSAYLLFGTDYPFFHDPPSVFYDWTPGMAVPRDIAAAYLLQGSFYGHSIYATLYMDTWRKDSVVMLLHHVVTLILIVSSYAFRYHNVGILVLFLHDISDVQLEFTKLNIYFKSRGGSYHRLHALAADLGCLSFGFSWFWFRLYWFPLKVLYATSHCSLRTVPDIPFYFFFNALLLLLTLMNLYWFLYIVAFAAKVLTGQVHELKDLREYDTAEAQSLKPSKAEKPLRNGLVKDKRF

Cer1 = details: cited from earlier work
Pma1 = experiment: Glucose dependent medium acidification (plasma membrane H+-ATPase activity); format: cell-based, Cryptococcus neoformans
Procedure: Glucose-dependent medium acidification was monitored by a modification of a procedure described previously (Perlin, Brown et al. 1988, Soteropoulos, Vaz et al. 2000). Cultures of Cn strain WT, Δcer1, Δcer1+CER1, Δgcs1 were grown to mid-log Phase in YPD. The next day, these cells were transferred to DMEM at pH 4.0 and allowed to grow under shaking conditions for 24 hours. These cells were then harvested and washed using 100 mM KCl, pH 5.0. These pellets were then resuspended in 10 ml KCl, pH 5.0 and incubated under shaking condition at 30° C. These samples were then stored at 4° C. overnight prior to use. For the assay, cells were concentrated to a final A590 of approximately 2.0. 20 μl cells along with 155 μl of bromophenolblue (50 μg/ml) in 100 mM KCl, pH 5.0. 20 μl 20% (w/v) glucose was added to initiate the reaction. Medium acidification was monitored at 590 nm over a period of 5 hours (data point every 3 mins) in a microplate reader (SpectraMax M5).

GAL7::IPC1 = experiment: In vitro growth at 37° C., 5% CO2, pH 4.0; format: cell-based, Cryptococcus neoformans; details: supplementation
fungal Cer1 (Cn Cer1) = experiment: High throughput ceramide synthase assay (96-well, NBD-sphingosine, SPE); format: biochemical, Cryptococcus neoformans; details: 1 micromolar; wells contained 10 compounds each; 1 hour at 37° C.
Procedure: The compounds were first diluted to 1 mM each (1:10 dilution with 10% DMSO) with a physiological buffer (YNB medium buffered with HEPES at pH 7.4 containing 2% glucose) and subsequently diluted to 300 μM (1:3.3 dilution) with the same medium (3% DMSO). A 100-μl aliquot of this solution was placed into each well of a 96-well master plate and stored at −20° C. until use. Each well in the screening master plates contained 10 compounds at 1 μM each. The ceramide synthase reaction was performed in a 96-well plate format using fungal Cer1 (Cn Cer1) or human ceramide synthase (Hu-Cer1, -Cer2, -Cer3, -Cer4, -Cer5, or -Cer6) enzyme, containing NBD-Sphingosine (NBD-Sph) (Avanti Polar Lipids) and 18:0 Coenzyme A (Stearoyl Coenzyme A, Avanti Polar Lipids) as substrates using the following concentrations: 10 μM NBD-Sph and 50 μM fatty acid CoA. The reaction mixture was prepared in HEPES buffer (20 mM HEPES, pH 7.2, 25 mM KCl, 250 mM sucrose, and 2 mM MgCl2). Library compounds were added and plate incubated for 1 hour at 37 C. The lipid product (NBD-ceramide) was separated using solid phase extraction (SPE) column chromatography using Strata® C18-E, 96 well plates (Phenomenex). Reaction product was measured using a plate reader.
The Cn Cer1 enzyme is expressed using the pYES-GAL1 galactose inducible system in Saccharomyces cerevisiae whereas the mammalian ceramide synthases (Cer1-6) are induced with tetracycline using the Tet-On System in HCT-116 cells under the control of Geneticin and Blasticidin. Cn Cer1 or Hu Cer1-6 enzymes were extracted using the tag system and enriched in microsomal preparation. Before using the enzymes in the plate screening, each preparation was tested for ceramide activity using the TLC assay illustrated in FIG. 11, to make sure the ceramide synthase activity works as expected. Appropriate negative controls (e.g. Cn Cer1 on glucose or Hu Cer1 in absence of tetracycline) were included in each plate during the screening.
The ceramide synthase assay was performed using NBD-Sphingosine (NBD-Sph) (Avanti polar lipids) and 18:0 Coenzyme A (Stearoyl Coenzyme A, Avanti polar lipids) as substrates using the following concentrations: 10 μM NBD-Sph and 50 μM fatty acid CoA. Enzyme(s)—ceramide synthases—were prepared using microsome purification of the yeasts or mammalian expression system. For yeast, the S. cerevisiae strain BY4741 expressing C. neoformans ceramide synthase 1 using the pYES GAL1 expression system was grown in 200 ml of liquid YNB 2% galactose medium for 16 hours. The same strain grown in the same medium but containing 2% glucose was used as a negative control because the Cn Cer1 gene is under the control of the galactose promoter (GAL1). Cells were then harvested by centrifugation, resuspended in 2 ml of Lysis Buffer (20 mM HEPES/KOH, pH 7.4, 25 mM KCl, 2 mM MgCl2, 250 mM sorbitol) and 50 μl of proteinase inhibitor mixture (Sigma-Aldrich)/g of cells, and broken by bead-bashing at 4° C. for 1.5 h. Cell debris were removed by centrifuging at 1000 g at 4° C. for 10 min. The supernatant was loaded on a 60% (w/w) sucrose cushion and centrifuged at 100,000 g for 1 h. The microsomes were collected from the interphase, snap frozen in liquid nitrogen, and stored at −80° C. until use.
The high throughput assays were adapted from the Avanti Ceramide synthase assay kit (https://avantilipids.com/product/640011/). The reactions were first downsized to 20 μl in a 96-well plate format using human ceramide synthases (Cer1, […], Cer3, Cer4, Cer5, or Cer6) along with Cn Cer1. Lipid product (NBD-ceramide) was separated using solid phase extraction (SPE) column chromatography using Strata® C18-E, 96 well plates (Phenomenex). The reaction product was measured using a plate reader, as in FIG. 12. The Z′ score of the assay is 0.80194, which is considered excellent (FIG. 12).
An initial screening yielded compounds 1-10 (Table 3). […]

| Compound | % reduction in activity (inhibition of Cn Cer1 synthse activity) (fungal Cer1 (Cn Cer1)) [%] | also measured |
| --- | --- | --- |
| CCCCCC[C@@H](C)C1=C(O)C(=O)[C@@H]2[C@H](O)[C@H](C)C[C@H](O)[C@H]2[C@]1(C)C(=O)/C=C\O [Australifungin] |  | targets human Cer1 (human Cer1): targets human Cer1; known Cer1 inhibitor (Cer1): known Cer1 inhibitor |
| CCCCCCCCCCCCC/C=C/[C@@H](O)[C@H](CO)NC(=O)CCCCCCCCCCCCCCCCC [C18 ceramide] |  | Pma1 activity (Pma1; AbA treated Δgcs1 cells, supplementation): increases; Pma1 efficiency (Pma1; Δcer1 cells upon supplementation): increase; growth defect of GAL7::IPC1 in acidic conditions (GAL7::IPC1): compensated |
| O=C1NCC2(CCCN(c3nnnn3-c3ccccc3)CC2)O1 (stereo not shown) [Compound 32] | 85.73 |  |
| Cc1nc(C(C)C)ncc1C(=O)N(C)Cc1snnc1C [Compound 33] | 85.73 |  |
| CCn1c(C2CCN(C(=O)C(C)n3cncn3)CC2)nn(C)c1=O (stereo not shown) [Compound 34] | 85.73 |  |
| CCSc1nc(CC(=O)N2[C@@H]3CC[C@H]2C[C@@H](O)C3)cs1 [Compound 35] | 85.73 |  |
| Cc1noc(C)c1-n1c(CCCN2CCOCC2)n[nH]c1=O [Compound 36] | 85.73 |  |
| CC(C)Cc1n[nH]c(Cn2nc(Cc3ccccc3)c3ccccc3c2=O)n1 [Compound 37] | 85.73 |  |
| Cc1cc(C)n2nc(C(=O)N3CCC4(CN(C)C(=O)O4)C3)cc2n1 (stereo not shown) [Compound 38] | 85.73 |  |
| CN(C)CC1COCCN(Cc2c(-c3ccccc3)nc3ncccn23)C1 (stereo not shown) [Compound 39] | 85.73 |  |
| NC(=O)c1cccc(CC2CCN(C(=O)CCn3ccccc3=O)C2)c1 (stereo not shown) [Compound 40] | 85.73 |  |
| O=C(Nc1cccnc1)c1ccc(-c2cccc3cccnc23)o1 [Compound 41] | 84.91 |  |
| CN1CCC2(CC1)CCN(C(=O)c1cccc(Oc3ncccn3)c1)C2 [Compound 42] | 84.91 |  |
| CC(=O)N(C)CC1=CCCN(Cc2cc(F)c(F)cc2F)C1 [Compound 43] | 84.91 |  |
| O=C1NCC(=O)N2CCN(C(=O)c3cccc4c3NCCC4)CC12 (stereo not shown) [Compound 44] | 84.91 |  |
| CC(=O)N(CCc1ccc(F)cc1)CC1=CCCN(CCO)C1 [Compound 45] | 84.91 |  |
| CNc1ncc(CN(C)C(=O)c2cnn[nH]2)cn1 [Compound 46] | 84.91 |  |
| Cc1cc2[nH]c(CN3CCCC3c3nc4cc(F)ccc4[nH]3)cc(=O)n2n1 (stereo not shown) [Compound 47] | 84.91 |  |
| O=C(c1cnn[nH]1)N1CCC(Oc2ncccn2)CC1 [Compound 48] | 84.91 |  |
| Cc1ccccc1-n1cc(CN(C)C(=O)c2ccccc2C2CCNC2)cn1 (stereo not shown) [Compound 49] | 84.91 |  |
| CCc1nc(C)sc1CNc1nc(-c2cccnc2)nc2c1cnn2C [Compound 50] | 84.91 |  |
| Aureobaisdin A [AbA] |  | Pma1 activity (Pma1; Δgcs1 strain upon treatment): reduced |
